Data from ChEMBL document CHEMBL1821647, “Synthesis and antioxygenic activities of seabuckthorn flavone-3-ols and analogs” (Bioorg Med Chem Lett, 2011).

Tested on: Radical scavenging activity
Experiment: Antioxidant activity assessed as DPPH free radical scavenging activity
Type: functional

SMILES | EC50 [µg]
O=C(O)[C@H]1O[C@@H](Oc2c(O)cc(O)c3c(=O)c(O)c(-c4ccc(O)c(O)c4)oc23)[C@H](O)[C@@H](O)[C@@H]1O [HIBIFOLIN] | 16
O=C1c2c(O)cc(O)cc2O[C@H](c2ccc(O)c(O)c2)[C@H]1O [(+)-TAXIFOLIN] | 24
O=C1c2c(O)cc(O)cc2O[C@H](c2ccc(O)cc2)[C@H]1O [DIHYDROKAEMPFEROL] | > 100
O=c1c(O)c(-c2ccc(O)cc2)oc2cc(O)cc(O)c12 [KAEMPFEROL] | 14.6
COc1ccc(C2Oc3cc(O)cc(O)c3C(=O)C2O)cc1 (centres undefined) [DIHYDROKAEMPFERIDE] | > 100
O=c1c(O)c(-c2ccc(O)c(O)c2)oc2c(O[C@@H]3O[C@H](CO)[C@@H](O)[C@H](O)[C@H]3O)c(O)cc(O)c12 | 25.5
COc1ccc(-c2oc3cc(O)cc(O)c3c(=O)c2O)cc1 [KAEMPFERIDE] | 97
O=c1c(O)c(-c2ccc(O)c(O)c2)oc2c(O)c(O)cc(O)c12 [GOSSYPETIN] | 5.5
COc1cc(-c2oc3cc(O)cc(O)c3c(=O)c2O)ccc1O [ISORHAMNETIN] | 26.2
COc1cc(C2Oc3cc(O)cc(O)c3C(=O)C2O)ccc1O (centres undefined) [DIHYDROISORHAMNETIN] | > 100
O=c1oc2c(O)c(O)cc3c(=O)oc4c(O)c(O)cc1c4c23 [ELLAGIC ACID] | 4.8
O=c1c(O)c(-c2ccc(O)c(O)c2)oc2cc(O)cc(O)c12 [QUERCETIN] | 14.4
O=C(O)c1cc(O)c(O)c(O)c1 [GALLIC ACID] | 3.8

Results, then the compound that gave them:

EC50 [µg] | SMILES
12.5 | Cc1c(C)c2c(c(C)c1O)CCC(C)(C(=O)O)O2 (centres undefined) [TROLOX]
10.6 | COc1c(O)cc2oc(-c3ccc(O)c(O)c3)c(O)c(=O)c2c1O [PATULETIN]
> 100 | COc1ccc(-c2oc3cc(O)cc(O)c3c(=O)c2O)cc1O [TAMARIXETIN]
15.5 | C[C@@H]1O[C@@H](OC[C@H]2O[C@@H](Oc3c(-c4ccc(O)c(O)c4)oc4cc(O)cc(O)c4c3=O)[C@H](O)[C@@H](O)[C@@H]2O)[C@H](O)[C@H](O)[C@H]1O [RUTIN]
> 100 | COc1ccc(C2Oc3cc(O)cc(O)c3C(=O)C2O)cc1O (centres undefined) [TAMARAXETIN]
10.5 | O=c1c(O)c(-c2ccc(O)c(O)c2)oc2cc(O)c(O)c(O)c12 [QUERCETAGETIN]
